Measured values as given in ChEMBL document CHEMBL1201862, “PubChem BioAssay data set” (2004).
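Interpolation was linear, between the two tested concentrations surrounding the appropriate level; five concentrations were tested over 48 hours in 96-well plates. GI50 = concentration required for 50% inhibition of growth.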 Activity calls are given as the source filed them. No stated cut-off is given here; in the data, active = GI50 up to about 1.1 µM and inactive = higher.

Columns and labels:
Experiment in all cases: NCI anticancer screen, dose series, 48 h
786-0 = tested on: 786-0
BT-549 = tested on: BT-549
EKVX = tested on: EKVX
HCC 2998 = tested on: HCC 2998
HL-60 = tested on: HL-60
IGROV-1 = tested on: IGROV-1
K562 = tested on: K562
M14 = tested on: M14
MCF7 = tested on: MCF7
NCI-H226 = tested on: NCI-H226
OVCAR-5 = tested on: OVCAR-5
RXF 393 = tested on: RXF 393
SF-539 = tested on: SF-539
SNB-75 = tested on: SNB-75
SW-620 = tested on: SW-620
U-251 = tested on: U-251
UACC-257 = tested on: UACC-257
Hs-578T = tested on: Hs-578T
SK-MEL-2 = tested on: SK-MEL-2

SMILES	GI50 (786-0)	GI50 (BT-549)	GI50 (EKVX)	GI50 (HCC 2998)	GI50 (HL-60)	GI50 (IGROV-1)	GI50 (K562)	GI50 (M14)	GI50 (MCF7)	GI50 (NCI-H226)	GI50 (OVCAR-5)	GI50 (RXF 393)	GI50 (SF-539)	GI50 (SNB-75)	GI50 (SW-620)	GI50 (U-251)	GI50 (UACC-257)	GI50 (Hs-578T)	GI50 (SK-MEL-2)
CN1CN(c2ccccc2)C2(CCN(Cc3csc4ccccc34)CC2)C1=O	19.4 µM (inactive)	7.35 µM (inactive)	7.53 µM (inactive)	13.4 µM (inactive)	4.39 µM (inactive)	10.8 µM (inactive)	5.45 µM (inactive)	13.7 µM (inactive)	11.6 µM (inactive)	21 µM (inactive)	1.63 µM (inactive)	16.6 µM (inactive)	15.1 µM (inactive)	23.7 µM (inactive)	13.3 µM (inactive)	8.55 µM (inactive)	13.2 µM (inactive)	–	–
COc1ccc(-n2sc3ncc(C)cc3c2=O)cc1	17.3 µM (inactive)	19.4 µM (inactive)	18.3 µM (inactive)	62.2 µM (inactive)	–	31.9 µM (inactive)	39 µM (inactive)	18.7 µM (inactive)	23.7 µM (inactive)	26.2 µM (inactive)	20.1 µM (inactive)	–	–	–	33.8 µM (inactive)	22.4 µM (inactive)	–	30.6 µM (inactive)	21.8 µM (inactive)
O=C(c1cccc2ccccc12)C1(Br)S(=O)(=O)OCCOS1(=O)=O	> 100 µM (inactive)	> 100 µM (inactive)	> 100 µM (inactive)	> 100 µM (inactive)	> 100 µM (inactive)	–	> 10 µM (inactive)	> 100 µM (inactive)	> 100 µM (inactive)	–	> 100 µM (inactive)	–	–	–	–	> 100 µM (inactive)	> 100 µM (inactive)	–	> 100 µM (inactive)
Cc1cc(=O)oc2cc(OCC(O)COC(C)C)ccc12 (centres undefined)	> 100 µM (inactive)	–	> 100 µM (inactive)	> 100 µM (inactive)	> 100 µM (inactive)	> 100 µM (inactive)	> 100 µM (inactive)	> 100 µM (inactive)	> 100 µM (inactive)	–	> 100 µM (inactive)	–	–	> 100 µM (inactive)	99.1 µM (inactive)	> 100 µM (inactive)	> 100 µM (inactive)	97.1 µM (inactive)	–
CC(=O)c1cccc(Nc2nc3ccccc3c3[nH]c4ccccc4c23)c1	3.01 µM (inactive)	> 100 µM (inactive)	3.05 µM (inactive)	–	–	2.88 µM (inactive)	4.69 µM (inactive)	8.79 µM (inactive)	0.403 µM (active)	–	6.52 µM (inactive)	–	4 µM (inactive)	–	4.81 µM (inactive)	3.98 µM (inactive)	9.04 µM (inactive)	10.9 µM (inactive)	3.75 µM (inactive)
COc1ccc(-c2cc(-c3cc(C)cc(Br)c3O)no2)cc1	12 µM (inactive)	14.9 µM (inactive)	25.2 µM (inactive)	–	47.9 µM (inactive)	10.8 µM (inactive)	14.1 µM (inactive)	25.6 µM (inactive)	15.7 µM (inactive)	5.18 µM (inactive)	30.4 µM (inactive)	–	5.74 µM (inactive)	2.86 µM (inactive)	16.3 µM (inactive)	5.66 µM (inactive)	11 µM (inactive)	4.86 µM (inactive)	22.2 µM (inactive)
CC(=O)OC1CCN(C(=O)c2ccccc2)CC1CC1(c2cc3ccccc3[nH]2)OCCO1 (centres undefined)	> 100 µM (inactive)	–	83 µM (inactive)	47.3 µM (inactive)	24.2 µM (inactive)	61.2 µM (inactive)	30.1 µM (inactive)	83.8 µM (inactive)	> 100 µM (inactive)	> 100 µM (inactive)	> 100 µM (inactive)	> 100 µM (inactive)	–	49.4 µM (inactive)	> 100 µM (inactive)	77.4 µM (inactive)	50 µM (inactive)	–	> 100 µM (inactive)
CSc1cc(Cl)c(C)cc1S(=O)(=O)NC(=O)NNc1ccc(C)cc1	> 100 µM (inactive)	–	> 100 µM (inactive)	22.2 µM (inactive)	–	> 100 µM (inactive)	> 100 µM (inactive)	> 100 µM (inactive)	> 100 µM (inactive)	> 100 µM (inactive)	> 100 µM (inactive)	> 100 µM (inactive)	> 100 µM (inactive)	8.26 µM (inactive)	> 100 µM (inactive)	> 100 µM (inactive)	–	> 100 µM (inactive)	93.3 µM (inactive)
SC1=NC2=C(CSC/C2=C\c2cccc(Br)c2)C(c2cccc(Br)c2)N1 (centres undefined)	66.8 µM (inactive)	–	42.3 µM (inactive)	> 100 µM (inactive)	> 100 µM (inactive)	> 100 µM (inactive)	45.7 µM (inactive)	46.2 µM (inactive)	64.1 µM (inactive)	> 100 µM (inactive)	> 100 µM (inactive)	> 100 µM (inactive)	> 100 µM (inactive)	41.6 µM (inactive)	> 100 µM (inactive)	> 100 µM (inactive)	> 100 µM (inactive)	> 100 µM (inactive)	> 100 µM (inactive)
COC(=O)/C=C/c1ccc2nncnc2c1.COC(=O)/C=C\c1ccc2nncnc2c1	> 100 µM (inactive)	60.8 µM (inactive)	> 100 µM (inactive)	–	96.4 µM (inactive)	85.5 µM (inactive)	43 µM (inactive)	21 µM (inactive)	42.5 µM (inactive)	> 100 µM (inactive)	> 100 µM (inactive)	–	31.9 µM (inactive)	18.7 µM (inactive)	87.9 µM (inactive)	79.1 µM (inactive)	16.9 µM (inactive)	9.14 µM (inactive)	48.6 µM (inactive)
CC12OC(=O)C(C#N)C1(C)C1C(=O)CCCC12 (centres undefined)	> 100 µM (inactive)	–	> 100 µM (inactive)	–	> 100 µM (inactive)	> 100 µM (inactive)	> 100 µM (inactive)	> 100 µM (inactive)	–	> 100 µM (inactive)	> 100 µM (inactive)	> 100 µM (inactive)	> 100 µM (inactive)	> 100 µM (inactive)	> 100 µM (inactive)	> 100 µM (inactive)	–	–	> 100 µM (inactive)
CCOP(=O)(Cc1nc(C#N)c(N)o1)OCC	> 100 µM (inactive)	–	> 100 µM (inactive)	> 100 µM (inactive)	> 100 µM (inactive)	> 100 µM (inactive)	> 100 µM (inactive)	–	> 100 µM (inactive)	> 100 µM (inactive)	> 100 µM (inactive)	> 100 µM (inactive)	–	–	> 100 µM (inactive)	> 100 µM (inactive)	> 100 µM (inactive)	> 100 µM (inactive)	> 100 µM (inactive)
CC(=O)O[C@H]1CC[C@H]2[C@@H]3CCC4=CC(=O)C=C[C@]4(O)[C@H]3CC[C@]12C	50.6 µM (inactive)	43 µM (inactive)	31.7 µM (inactive)	45.1 µM (inactive)	–	55.1 µM (inactive)	7.66 µM (inactive)	32.1 µM (inactive)	26.7 µM (inactive)	16.6 µM (inactive)	> 100 µM (inactive)	20.6 µM (inactive)	31.3 µM (inactive)	14.7 µM (inactive)	25.5 µM (inactive)	46 µM (inactive)	18.4 µM (inactive)	–	22.1 µM (inactive)
CCN1CCN(c2nc3ccc([N+](=O)[O-])cc3nc2C(=O)c2ccccc2)CC1	18.7 µM (inactive)	5.64 µM (inactive)	16.1 µM (inactive)	15.3 µM (inactive)	26.2 µM (inactive)	5.78 µM (inactive)	6.31 µM (inactive)	12.4 µM (inactive)	18.3 µM (inactive)	11.8 µM (inactive)	20.1 µM (inactive)	16.7 µM (inactive)	16.1 µM (inactive)	–	21 µM (inactive)	17.3 µM (inactive)	20.1 µM (inactive)	–	15.8 µM (inactive)
CCCCN(CCCC)CC(C(=O)Nc1ccc([N+](=O)[O-])cc1[N+](=O)[O-])/C(C)=N\NC(=S)NN (centres undefined)	> 100 µM (inactive)	–	65.6 µM (inactive)	> 100 µM (inactive)	46 µM (inactive)	> 100 µM (inactive)	40.7 µM (inactive)	> 100 µM (inactive)	–	> 100 µM (inactive)	> 100 µM (inactive)	96.2 µM (inactive)	> 100 µM (inactive)	> 100 µM (inactive)	> 100 µM (inactive)	> 100 µM (inactive)	> 100 µM (inactive)	–	> 100 µM (inactive)
CC/C=C/C(CC)C/C(C)=C\[C@]1(CC)C[C@H](CC)[C@H](CC(=O)O)OO1 (some centres undefined)	1.31 µM (inactive)	–	–	–	0.682 µM (active)	0.0612 µM (active)	0.355 µM (active)	1.64 µM (inactive)	1.77 µM (inactive)	1.89 µM (inactive)	1.29 µM (inactive)	–	1.51 µM (inactive)	–	0.352 µM (active)	0.491 µM (active)	3.42 µM (inactive)	2.26 µM (inactive)	1.74 µM (inactive)
Cc1ccc(O)c(/N=N/c2ccc(S(=O)(=O)O)cc2)n1	> 100 µM (inactive)	–	21 µM (inactive)	–	> 100 µM (inactive)	> 100 µM (inactive)	> 100 µM (inactive)	> 100 µM (inactive)	–	–	–	> 100 µM (inactive)	> 100 µM (inactive)	–	> 100 µM (inactive)	> 100 µM (inactive)	–	–	–
COC(=O)CC(C(C(=O)OC)C(=O)OC)N1C(=O)OC(c2ccccc2)C1c1ccccc1 (centres undefined)	> 100 µM (inactive)	–	> 100 µM (inactive)	34 µM (inactive)	37 µM (inactive)	> 100 µM (inactive)	> 100 µM (inactive)	> 100 µM (inactive)	–	> 100 µM (inactive)	> 100 µM (inactive)	74.5 µM (inactive)	> 100 µM (inactive)	> 100 µM (inactive)	26.1 µM (inactive)	89.5 µM (inactive)	> 100 µM (inactive)	–	> 100 µM (inactive)
